Source: a melting point compilation (Tetko et al.; mined from patent text by program, amines drawn as free bases though some values may be those of a salt)

Row | SMILES | melting point [°C]
1 | COc1ccc(C(=O)C(=O)c2cccc(-c3ccc(S(C)(=O)=O)cc3)c2-c2ccccc2)cc1OC | 181 to 183
2 | CCCN(CCC)C1Cc2cccc3c2N(C1)C(=O)CN3 (stereo unspecified) | 97 to 99
3 | CCSc1cc2c(cc1F)C(=O)C(=O)N2 | 215
4 | CSc1c([N+](=O)[O-])c2cc(Cl)ccc2[nH]c1=O | 213
5 | Cc1cnc2c(c1)CCCC2NC(N)=S (stereo unspecified) | 114
6 | CC(=O)NCCCc1nc2cnc3ccc(C)cc3c2n1C | 213 to 215
7 | CCCCc1nn(-c2cc([N+](=O)[O-])ccc2Cl)c(C(=O)OCC)c1Cc1ccc(-c2ccccc2S(=O)(=O)NC(=O)c2ccccc2Cl)cc1 | > 60
8 | O=C(COc1ccc(Cl)cc1)C1(Cl)CC1 | 78
9 | COCOc1ccc(-c2ccc3c(c2)C(C)(C)CCC3(C)C)cc1-c1ccc(C(=O)O)cc1 | 137 to 140
10 | CCCCNC(=O)NS(=O)(=O)c1c(SC)cccc1SC | 151 to 154
11 | N#CC(=C(C#N)c1ccc(F)cc1)c1ccc(F)cc1 | 194 to 195
12 | C(=N\c1c(-c2ccccc2)cc(-c2ccccc2)cc1-c1ccccc1)/c1ccccn1 | 141 to 144
13 | CC(C)(C)OC(=O)COc1cc(NC(=O)OC(C)(C)C)c([N+](=O)[O-])cc1-c1ccc(F)cc1 | 92 to 93
14 | CC(Cl)(Cl)C(NC(=O)c1cccc(Cl)c1)NC(=NC#N)Nc1cccc(F)c1 (stereo unspecified) | 179 to 181
15 | Cc1nc(Cl)c([N+](=O)[O-])c(NCC(C)(C)N)c1C | 89 to 94
16 | CSCc1c(N)c(Br)cc(F)c1F | 60 to 61
17 | CC(=O)OCC1OC(n2cnc3c(N)ncnc32)CC1O (stereo unspecified) | 150 to 152
18 | CS(=O)(=O)Nc1ccc(OCCCCl)cc1 | 120 to 122
19 | CC(C)(C)OC(=O)N1CCC[C@@H]1[C@@H](NC(=O)c1ccc(Cl)cc1)NC(=NC#N)Nc1cccnc1 | 184 to 185
20 | CCN1CSC(=Cc2cc(C(C)(C)C)c(O)c(C(C)(C)C)c2)C1=O | 169 to 172
21 | CC(COc1ccc2ccc(Oc3c(F)cc(C(F)(F)F)cc3Cl)cc2c1)=NO | 153
22 | CSc1sc(-c2nccs2)c2c1C(=O)CCC2(C)C | 188 to 190

Row | SMILES | melting point [°C]
23 | N#CCC1(O)CCc2ccccc2C12CCCC2 (stereo unspecified) | 165 to 166
24 | CNS(=O)(=O)Oc1ccc2c(c1)C(C)(C)C(O)O2 (stereo unspecified) | 111 to 112
25 | Nn1ccn(C2CCc3ccccc3C2)c1=S (stereo unspecified) | 187 to 189
26 | O=C(N[C@H]1CC[C@H](CCN2CCN(c3nccc4c3OCC4)CC2)CC1)c1ccc(-n2cccn2)cc1 | 226
27 | CC1Cc2cc3c(cc2C(c2ccc([N+](=O)[O-])cc2)=NN1C#N)OCO3 (stereo unspecified) | 172 to 176
28 | CCN1CCCC1CNC(=O)c1sc(CO)c(C)c1OC (stereo unspecified) | 118 to 119
29 | O=C(O)COc1ccc2c(c1)CC(NS(=O)(=O)c1ccc(Cl)cc1)C2 (stereo unspecified) | 170 to 172
30 | Oc1c(Cl)cc(NCCCCCCBr)cc1Cl | 182 to 183
31 | COc1ccc([C@@H]2Sc3cc(C)c(C)cc3N(CCN(C)C)C(=O)[C@@H]2O)cc1 | 117 to 118
32 | CCOC(C)OC1CCC2(C)C3=C(CCC2C1(C)C)C1=CCC(C(C)CSc2ccccc2)C1(C)CC3 (stereo unspecified) | 101 to 107
33 | CCCCC(=O)c1cc2oc(C(=O)O)cc2c(C)c1C | 188 to 189
34 | COc1ccc(C(O)Cc2c(Cl)cccc2Cl)cc1OC1CCCC1 (stereo unspecified) | 87 to 89
35 | CCCC1=C(C#N)C(c2cccc(C#N)c2Cl)c2c[nH]nc2N1 (stereo unspecified) | > 250
36 | O=C(OCC1CC1)c1ncn2c1[C@@H]1CCN1C(=O)c1c(I)cccc1-2 | 190 to 191
37 | O=C(OCC(Cl)(Cl)Cl)n1ccnc1 | 80
38 | C[C@@H](N1CCN(c2ccc(-n3cnn(Cc4ccc(C(F)(F)F)cc4C(F)(F)F)c3=O)cc2)CC1)[C@](O)(Cn1cncn1)c1ccc(F)cc1F | 146 to 148
39 | CC(=O)OCOC(=O)Oc1c(Br)cc(C#N)cc1Br | 84 to 86
40 | CC1CCC2(C)C(=CCC3C4CC(Cl)C(=O)C4(C)CCC32)C1 (stereo unspecified) | 159 to 165
41 | CN(CCN1CCN(Cc2ccc(C(F)(F)F)cc2)CC1)C[C@@]1(C)Cn2cc([N+](=O)[O-])nc2O1 | 102 to 104
42 | O[C@@H]1[C@H](O)[C@H](O)CO[C@H]1n1c(Br)nc2cc(Cl)c(Cl)cc21 | 164 to 165
43 | CCOc1nn(CCO)cc1C(=O)NCc1ccc(Cl)cc1Cl | 152 to 153
44 | O=C(O)C(=O)Nc1cccc(-c2nnn[nH]2)c1 | 240

Row | SMILES | melting point [°C]
45 | ON=Cc1ccc(Cl)c(I)c1 | 97 to 99
46 | CCS(=O)(=O)Nc1cc(-n2nc3n(c2=O)CCCC3)c(F)cc1C(N)=S | 220
47 | COc1cc(COc2nn(-c3ccccc3)cc2CC2SC(=O)N(C)C2=O)ccc1OCc1nc(-c2ccco2)oc1C (stereo unspecified) | 111 to 112
48 | CCOC(=O)C(=CNc1ccc2c(c1)N1CCN=C1S2)C(=O)OCC | 140
49 | CNC(=NS(C)(=O)=O)NCCSCc1csc(CN(C)C)n1 | 95 to 97
50 | CSc1ccc(-n2cnc3ccc(-c4nnc(CCc5cccc(C#N)c5)o4)cc32)cc1 | 185 to 186
51 | CC(C)(C)c1ncc(O)c(Cl)n1 | 108
52 | O=C(O)c1ccsc1COc1ccc(CCCCO)cc1 | 140 to 141
53 | COc1cc2c(cc1[N+](=O)[O-])-c1c(-c3cccs3)c3c(n1CC2)C(=O)N(C(C)(C)C)CCC3 | 279 to 280
54 | CC(C)(C)c1csc(NC(=O)c2ccn3c(=O)c(/C=C/C(=O)O)c(N4CCC(O)CC4)nc3c2)n1 | 215 to 218
55 | COC(=O)/C(C)=C1\CN2C(=O)CC2O1 (stereo unspecified) | 90 to 91
56 | CC(C)(CCCC(=O)O)c1ccc2c(c1)C(=O)c1cc(C(C)(C)CCCC(=O)O)ccc1C2=O | 145 to 147
57 | COC(=O)c1cc(Cl)c(NC(C)=O)c2c1OCCC2 | 184
58 | COc1ccc2[nH]cc(CC3=CCCN(CCCC(=NO)c4ccc(F)cc4)C3)c2c1 | 129 to 130
59 | COc1ccc(NC(=O)N2CCN(CCc3ccc(-c4cccc(N)n4)cc3)CC2)cc1 | 182 to 184
60 | CC(=O)NNc1ccc([N+](=O)[O-])cc1 | 207 to 209
61 | CC(C)(C)Nc1c(NCc2cccc(F)c2)c(=O)c1=O | 295 to 297
62 | OCCNc1nc(NCCO)nc(Nc2ccccc2Cl)n1 | 108 to 110
63 | CCCCCCCCCCCCNC(=O)c1cc(-c2cc(Cl)cc(Cl)c2)c(OCC(=O)O)c(-c2cc(Cl)cc(Cl)c2)c1 | 139 to 144
64 | COC(=O)c1[nH]c(SCc2ccccn2)nc1CCNC(=O)[C@H](Cc1ccccc1)NC(=O)N(Cc1ccccc1)NC(=O)C(C)(C)C | 171 to 172

Now from value to compound:

Row | melting point [°C] | SMILES
65 | 110 to 111 | O=C(O)C(Cc1ccccc1F)Cc1ccccc1F
66 | 73 to 75 | COc1ccc(NC(=N)c2ccccn2)cc1
67 | 290 | COc1ccccc1Sc1c(O)nc(C)[nH]c1=O
68 | 118 to 119 | COC(=O)Cc1ccccc1[C@@H]1O[C@H]1c1ccccc1 (relative stereo)
69 | 149 to 151 | COc1ccc(S(=O)(=O)n2ccc3ccnc(-c4ccccc4)c32)cc1
70 | 99 | CCOC(=O)c1c(Cc2ccccc2)nc2c(C(F)(F)F)cccc2c1O
71 | 177 to 179 | Cc1ccc(S(=O)(=O)Nc2ccccc(=O)c2O)cc1
72 | 165 to 167 | COc1cc2c(cc1OC)CN(CCCCc1ccc(NC(=O)c3ccc4ccccc4c3)cc1)CC2
73 | 94 to 97 | COC(=O)CCCc1cc2cc(Cl)ccc2n1S(=O)(=O)c1cccc(C(C)C)c1
74 | 170 to 171 | O=c1c(Cc2ccccc2)cn(-c2cccc(Cl)c2)c2ncccc12
75 | 251 | CCn1c(C)nc2cc(C(N)=O)ccc21
76 | 87 to 88 | c1ccc(NCP(CNc2ccccc2)CNc2ccccc2)cc1
77 | 92 to 94 | COC(=O)c1sc(-c2ccccc2)cc1N=NN(C)C
78 | 160 to 162 | Cc1csc2c(CSc3nc4ccccc4[nH]3)nccc12
79 | 81.8 to 82.1 | COc1ccc(C(=O)NCCc2ccccc2C)cc1
80 | 207 to 210 | O=C(Nc1ccc(CO)cc1)C1=Cc2cc(-c3ccccc3)ccc2CC1
81 | 194 to 196 | CN1Cc2ccccc2C(=O)c2cc(CC(=O)O)ccc21
82 | 181 to 183 | COc1cc(C)cc(NC(=O)c2nnnn2Cc2ccccc2)c1OCc1ccccc1
83 | 78 to 80 | CCn1c2ccccc2c2cc(I)ccc21

Row | melting point [°C] | SMILES
84 | 272 to 274 | CSc1ccccc1-c1cc2c(ccn2C)c2c1C(=O)NC2=O
85 | 145 | OC(c1ccccc1)c1cc2ccccc2cc1C(O)c1ccccc1 (stereo unspecified)
86 | 167 to 170 | CN1C(C(=O)Nc2cccccc2=O)=C(OC(=O)C=Cc2ccccc2)c2sccc2S1(=O)=O
87 | 198 to 200 | CCOC(=O)c1nn(-c2ccc(Br)cc2)c(=O)c2c(N)scc12
88 | 172 to 174 | Clc1nn2c(-c3ccccc3)nnc2c2ccccc12
89 | 162 to 163 | Cc1nccn1CC(COc1cccc(Cl)c1)Sc1c(Cl)cccc1Cl (stereo unspecified)
90 | 185 to 187 | NC(=S)Nc1cc(F)ccc1-c1ccccc1
91 | 105 to 107 | Cc1nc(-c2cc(C)c(OCCCc3cnc4ccccc4c3)c(C)c2)no1
92 | 96 to 98 | Cn1c(C(N)=O)c(-c2ccc(N)cc2)c2ccccc21
93 | 162 to 164 | CCC(=O)c1ccc2c(ccn2S(=O)(=O)c2ccc(C)cc2)c1
94 | 66 to 67 | CCC1(C)OC1COc1ccc(C(=O)c2ccccc2)cc1 (stereo unspecified)
95 | 161 to 162 | COc1nc2ccc(Br)cc2cc1C(c1ccccc1)n1ccnc1 (stereo unspecified)
96 | 150 | CC1Cn2c(=O)[nH]c3cccc(c32)CN1CCc1ccccc1 (stereo unspecified)
97 | 183 to 184 | O=C(CN1CCC(Cc2ccccc2)CC1)Nc1ccc2[nH]c(=S)oc2c1
98 | 108 to 112 | COC(=O)c1cc(N2CCCC2)c(Oc2ccccc2)c(S(=O)(=O)Cl)c1
99 | 243 to 245 | Cc1nc2c(O)cccc2n1C
100 | 120 to 121 | CC(=O)NC(C)c1ccc(CN2CCN(c3ccccn3)CC2)cc1 (stereo unspecified)
101 | 138 | Cc1oc(-c2ccccc2)nc1CCOc1ccc(CC(C(N)=O)C(=O)O)cc1 (stereo unspecified)
